Data on one compound can be found in publication PMC5377415, “Thermo‐kinetic analysis space expansion for cyclophilin‐ligand interactions – identification of a new nonpeptide inhibitor using Biacore™ T200” (FEBS Open Bio, 2017).

The assay has as its target T1, His-tagged human cyclophilin-A (His-CypA) (Homo sapiens, UniProt P62937).
T1 construct: gene PPIA; full length M1-E165, codon-optimised, E. coli C41
The assay is described as follows: SPR (Biacore T200), […] Langmuir fit, captured and stabilised His-CypA. Format: binding. In general terms: SPR reads the build-up and loss of mass on a sensor chip optically.

T1 sequence (P62937 whole entry): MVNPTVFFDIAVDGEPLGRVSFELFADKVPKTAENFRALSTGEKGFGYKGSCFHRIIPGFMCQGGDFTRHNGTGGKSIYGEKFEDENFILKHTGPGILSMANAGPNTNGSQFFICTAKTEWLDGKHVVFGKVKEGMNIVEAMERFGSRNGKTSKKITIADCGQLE

In the case of `Nc1cccnc1N` [2,3-diaminopyridine], binding was characterised by a dissociation constant (Kd) of 248 ± 60 µM.

In general, Kd refers to the free concentration of one partner at which half of the binding sites on the other are occupied at equilibrium, for simple one-to-one binding. Low values mean tighter binding, high ones weaker binding.
